In this assay the test system is Diabrotica speciosa. The assay is described as follows: Dry bean field trials, Diabrotica speciosa damage and yield (Example 4). Type of assay: in vivo. The settings on record: 150 L water/ha, two applications 7 d apart; for % Damage, % UNCK: 28 DAB, Lambda-cyhalothrin 100 at 0.15 L/ha; for Yield: plot. From the text:
All applications were made with an EC formulation containing 650 g/L of pelargonic acid (e.g., 685 g/L of 95% purity pelargonic acid), an anionic emulsifier and a branched fatty acid ester solvent.
Diabrotica speciosa is a major pest in rice.
Dry Beans—Diabrotica speciosa

For the compound `CC1(C)[C@H](C(=O)O[C@H](C#N)c2cccc(Oc3ccccc3)c2)[C@@H]1/C=C(\Cl)C(F)(F)F` (racemic) [Lambda-cyhalothrin 100, Lambda-cyhalothrin, reference compound], for the setting “Trial 1, dry bean”, the “% Damage, % UNCK” value was found to be 80.55b % UNCK and the Yield worked out at 2.55a Ton/ha. Moreover, under “Trial 2, dry bean”, the “% Damage, % UNCK” value came to 81.41c % UNCK and the Yield stood at 2.29ab Ton/ha.
